Consider eleven compounds from patent publication US4851519A, “Pyrimidine derivatives” (Hoffmann-La Roche Inc., priority 1986, dated 1989).

Structures are written as SMILES. pIC50: −log10 of the molar value.

The target of the first experiment is herpes simplex virus type 2 (HSV-2) thymidine kinase (Human herpesvirus 2, UniProt P04407). Kind of experiment: inhibition of herpes simplex virus type 2 (HSV-2) thymidine kinase in vitro. In kind it is biochemical.
Chain of herpes simplex virus type 2 (HSV-2) thymidine kinase (P04407 whole entry): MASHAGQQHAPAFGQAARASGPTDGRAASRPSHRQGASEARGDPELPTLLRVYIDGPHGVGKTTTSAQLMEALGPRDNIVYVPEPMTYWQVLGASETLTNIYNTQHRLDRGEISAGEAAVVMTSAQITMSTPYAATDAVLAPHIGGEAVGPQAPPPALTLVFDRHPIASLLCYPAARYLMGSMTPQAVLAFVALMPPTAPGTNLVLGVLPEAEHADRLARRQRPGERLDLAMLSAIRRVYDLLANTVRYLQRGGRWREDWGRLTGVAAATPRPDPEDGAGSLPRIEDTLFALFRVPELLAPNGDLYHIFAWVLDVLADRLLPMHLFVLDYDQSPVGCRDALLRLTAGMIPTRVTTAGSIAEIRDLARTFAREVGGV
Conditions: not given
As to the method:
In this test, the assay mixture contains […] Tris-HCl, pH 8, 5 mM magnesium chloride, 5 mM ATP, 0.3 μM ^3 H-thymidine (50 Ci/mmol), suitably diluted thymidine kinase extract and various concentrations of a compound of formula I or a tautomer thereof in a total volume of 100 μl. Assays are incubated at 37° C. for 30 minutes and the reaction is terminated by immersion in a boiling water bath for 2 minutes. 85 μl aliquots from each assay are then dried on to DEAE-cellulose paper discs and the unphosphorylated ^3 H-thymidine is removed by washing in 4 mM ammonium formate. The radioactivity remaining bound to the discs is then measured by scintillation spectrophotometry. The degree of inhibition at each concentration of compound of formula I or tautomer thereof is expressed as a percentage of the control reaction (100%) after substracting a measured blank value which represents the amount of radioactivity bound to the disc from a reaction containing heat inactivated enzymes. the IC50 value, namely, the concentration of compound of formula I or tautomer thereof which inhibits enzyme activity by 50%, is then calculated. The results obtained with representative compounds of formula I are complied in the following Table: […]
Turning to `CCc1cn([C@H]2C[C@H](O)[C@@H](CNC(=O)Cc3c(Cl)cccc3Cl)O2)c(=O)[nH]c1=O` [Compound B, 5'-[2-(2,6-dichlorophenyl)acetamido]-2',5'-dideoxy-5-ethyluridine], the pIC50 was 8.52.

The experiment is the same for the next values; noted with them: HSV-2 thymidine kinase extract; 0.3 μM 3H-thymidine, 5 mM ATP, pH 8, 37° C., 30 minutes; read-out: IC50 (concentration which inhibits enzyme activity by 50%).
In the case of `CCc1cn([C@H]2C[C@H](O)[C@@H](CNC(=O)C(C)Oc3ccc(Cl)cc3Cl)O2)c(=O)[nH]c1=O` (mixture of isomers) [Compound C, 5'-[2(RS)-(2,4-dichlorophenoxy)propionamido]-2',5'-dideoxy-5-ethyluridine], the pIC50 is 8.43.
Still for that read-out and setting: next, `CCc1cn([C@H]2C[C@H](O)[C@@H](CNC(=O)C(C)Oc3ccccc3-c3ccccc3)O2)c(=O)[nH]c1=O` (mixture of isomers) [Compound E, 2',5'-dideoxy-5-ethyl-5'-[2(RS)-(2-phenylphenoxy)propionamido]uridine]: 8.30.
The same measure, in the same setting: the value for `CCc1cn([C@@H]2O[C@H](CNC(=O)C(C)Oc3ccc(Cl)cc3Cl)[C@@H](O)[C@@H]2F)c(=O)[nH]c1=O` (mixture of isomers) [Compound F, 1-[5-[2-(RS)-(2,4-dichlorophenoxy)propionamido]-2,5-dideoxy-2-fluoro-β-D-arabinofuranosyl]-5-ethyluracil] was 8.40; that for `CCc1cn([C@H]2C[C@H](O)[C@@H](CNC(=O)C(C)Oc3cc(Cl)c(Cl)cc3Cl)O2)c(=O)[nH]c1=O` (mixture of isomers) [Compound G, 5'-[2(RS)-(2,4,5-trichlorophenoxy)propionamido]-2',5'-dideoxy-5-ethyluridine] was 8.89.
On the same count and under the same terms, the value for `CCc1cn([C@H]2C[C@H](O)[C@@H](CNC(=O)C(C)Oc3ccc(Cl)cc3[N+](=O)[O-])O2)c(=O)[nH]c1=O` (mixture of isomers) [Compound H, 5'-[2(RS)-(4-chloro-2-nitrophenoxy)propionamido]-2',5'-dideoxy-5-ethyluridine] was 8.57.
`CCc1cn([C@H]2C[C@H](O)[C@@H](CNC(=O)C(Oc3ccc(Cl)cc3Cl)c3ccccc3)O2)c(=O)[nH]c1=O` (mixture of isomers) [Compound I, 5'-[2(RS)-(2,4-dichlorophenoxy)-2-phenylacetamido]-2',5'-dideoxy-5-ethyluridine]: the pIC50 was 8.33.
`CCc1cn([C@H]2C[C@H](O)[C@@H](CNC(=O)C(C)Oc3cc(OC)c(Cl)cc3Cl)O2)c(=O)[nH]c1=O` (mixture of isomers) [Compound J, 5'-[2(RS)-(2,4-dichloro-5-methoxyphenoxy)propionamido]-2',5'-dideoxy-5-ethyluridine]: the pIC50 was 8.92.
Still for that read-out and setting: the value for `CCCc1cn([C@H]2C[C@H](O)[C@@H](CNC(=O)C(C)Oc3ccc(Cl)cc3Cl)O2)c(=O)[nH]c1=O` (mixture of isomers) [Compound K, 5'-[2(RS)-(2,4-dichlorophenoxy)propionamido]-2',5'-dideoxy-5-propyluridine] was 8.46; that for `CCc1cn([C@H]2C[C@H](O)[C@@H](CNC(=O)Cc3ccccc3Br)O2)c(=O)[nH]c1=O` [Compound A, 5'-[2-(2-bromophenyl)acetamido]-2',5'-dideoxy-5-ethyluridine] was 7.70.
Same read-out and setting: next, `CCc1cn([C@H]2C[C@H](O)[C@@H](CNC(=O)Cc3ccc(-c4ccccc4)cc3)O2)c(=O)[nH]c1=O` [Compound D, 5'-[2-(4-biphenylyl)acetamido]-2',5'-dideoxy-5-ethyluridine]: 7.15.
